Among the data in US12325701B2, “YKL-40 inhibitors and their therapeutic” (Molecure S.A., priority 2022, dated 2025) are IC50 values, retold here.

Where a name gives a salt, the structure may show the parent alone. Read-outs that look alike come from different tables or passages of the source. Bounds are passed on as bounds.

The target of this test is YKL-40 (YKL-40-histag, chitin binding site) (Homo sapiens (Human), UniProt P36222). The test is described as follows: YKL-40:4 assay, competitive chitin binding site AlphaScreen.
Setting [1] is: competition with biotinylated compound 4, 20 nM, YKL-40-histag 2.5 nM, read-out: YKL-40:4, IC50/Kd (IC50 range).

Sequence of YKL-40 (YKL-40-histag, chitin binding site) (P36222 22-383): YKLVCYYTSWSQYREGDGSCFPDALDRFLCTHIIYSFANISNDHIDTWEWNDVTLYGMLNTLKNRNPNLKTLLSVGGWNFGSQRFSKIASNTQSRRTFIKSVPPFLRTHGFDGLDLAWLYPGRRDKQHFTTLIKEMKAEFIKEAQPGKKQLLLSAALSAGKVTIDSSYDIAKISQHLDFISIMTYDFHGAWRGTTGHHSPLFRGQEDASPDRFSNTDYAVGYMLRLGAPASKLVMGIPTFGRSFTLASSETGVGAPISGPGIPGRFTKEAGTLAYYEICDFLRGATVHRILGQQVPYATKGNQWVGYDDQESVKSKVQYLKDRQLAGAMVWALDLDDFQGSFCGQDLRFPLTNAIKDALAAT

For the compound `C[C@H]1CN(C2CCN(c3cncc(C(F)(F)F)n3)CC2)[C@@H](Cc2ccc(Cl)cc2)CO1` [Compound 153, (2S,5S)-5-(4-chlorobenzyl)-2-methyl-4-(1-(6-(trifluoromethyl)pyrazin-2-yl)piperidin-4-yl)morpholine hydrochloride], under setting [1], the IC50 is > 10 µM.

In the case of `Cc1nsc(N2CCC(N3C[C@H](C)OC[C@@H]3Cc3ccc(Cl)cc3)CC2)n1` [Compound 180, (2S,5S)-5-(4-chlorobenzyl)-2-methyl-4-(1-(3-methyl-1,2,4-thiadiazol-5-yl)piperidin-4-yl)morpholine 2,2,2-trifluoroacetate], the IC50 is > 10 µM.

`C[C@H]1CN(C2CCN(c3ncnc(O)n3)CC2)[C@@H](Cc2ccc(Cl)cc2)CO1` [Compound 170]: the IC50 was > 10 µM.

Take `C[C@H]1CN(C2CCN(c3cnc(C(F)(F)F)cn3)CC2)[C@@H](Cc2ccc(Cl)cc2)CO1` [Compound 158, (2S,5S)-5-(4-chlorobenzyl)-2-methyl-4-(1-(5-(trifluoromethyl)pyrazin-2-yl)piperidin-4-yl)morpholine hydrochloride]: the IC50 under setting [1] was > 10 µM.

Turning to `C[C@H]1CN(C2C[C@H]3CC[C@@H](C2)N3c2cc(Cl)ccn2)[C@@H](Cc2ccc(Cl)cc2)CO1` (stereo partly drawn) [Compound 58, (2S,5S)-5-(4-chlorobenzyl)-4-((1R,5S)-8-(4-chloropyridin-2-yl)-8-azabicyclo[3.2.1]octan-3-yl)-2-methylmorpholine 2,2,2-trifluoroacetate], the IC50 is > 10 µM.

For the compound `C[C@H]1CN(C2CCN(c3cc(C(C)(C)O)ccn3)CC2)[C@@H](Cc2ccc(Cl)cc2)CO1` [Compound 131, 2-(2-(4-((2S,5S)-5-(4-chlorobenzyl)-2-methylmorpholino)piperidin-1-yl)pyridin-4-yl)propan-2-ol 2,2,2-trifluoroacetate], the IC50 was > 10 µM.

As to `C[C@H]1CN(C2CCN(c3nncs3)CC2)[C@@H](Cc2ccc(Cl)cc2)CO1` [Compound 181, (2S,5S)-4-(1-(1,3,4-thiadiazol-2-yl)piperidin-4-yl)-5-(4-chlorobenzyl)-2-methylmorpholine 2,2,2-trifluoroacetate], the IC50 is > 10 µM.

In the case of `C[C@H]1CN(C2CCN(c3nccc4ccccc34)CC2)[C@@H](Cc2ccc(Cl)cc2)CO1` [Compound 116, (2S,5S)-5-(4-chlorobenzyl)-4-(1-(isoquinolin-1-yl)piperidin-4-yl)-2-methylmorpholine 2,2,2-trifluoroacetate], the IC50 was > 10 µM.

For `C[C@H]1CN(C2CCN(c3noc(=O)[nH]3)CC2)[C@@H](Cc2ccc(Cl)cc2)CO1` [Compound 165, 3-(4-((2S,5S)-5-(4-chlorobenzyl)-2-methylmorpholino)piperidin-1-yl)-1,2,4-oxadiazol-5(4H)-one 2,2,2-trifluoroacetate], the IC50 is > 10 µM.

As to `CN1C[C@H](Cc2ccc(Cl)cc2)N(C2CCN(c3cc(Cl)ccn3)CC2)C[C@@H]1COc1ccc2ccccc2c1` [Compound 84, (2S,5R)-2-(4-chlorobenzyl)-1-(1-(4-chloropyridin-2-yl)piperidin-4-yl)-4-methyl-5-((naphthalen-2-yloxy)methyl)piperazine 2,2,2-trifluoroacetate], the IC50 was > 10 µM.

In the case of `C[C@H]1CN(C2CCN(c3noc(C(F)(F)F)n3)CC2)[C@@H](Cc2ccc(Cl)cc2)CO1` [Compound 164, (2S,5S)-5-(4-chlorobenzyl)-2-methyl-4-(1-(5-(trifluoromethyl)-1,2,4-oxadiazol-3-yl)piperidin-4-yl)morpholine 2,2,2-trifluoroacetate], the IC50 is > 10 µM.

In the case of `Cc1cccnc1N1CCC(N2C[C@H](C)OC[C@@H]2Cc2ccc(Cl)cc2)CC1` [Example 16, (2S,5S)-5-(4-chlorobenzyl)-2-methyl-4-(1-(3-methylpyridin-2-yl)piperidin-4-yl)morpholine 2,2,2-trifluoroacetate], the IC50 was > 10 µM.

Take `C[C@H]1CN(C2CCN(c3ncccc3C(N)=O)CC2)[C@@H](Cc2ccc(Cl)cc2)CO1` [Compound 114, 2-(4-((2S,5S)-5-(4-chlorobenzyl)-2-methylmorpholino)piperidin-1-yl)nicotinamide 2,2,2-trifluoroacetate]: the IC50 was > 10 µM.

`COc1cccnc1N1CCC(N2C[C@H](C)OC[C@@H]2Cc2ccc(Cl)cc2)CC1` [Compound 162, (2S,5S)-5-(4-chlorobenzyl)-4-(1-(3-methoxypyridin-2-yl)piperidin-4-yl)-2-methylmorpholine 2,2,2-trifluoroacetate]: the IC50 was > 10 µM.

Turning to `C[C@H]1CN(C2CCN(c3cccc(F)c3)CC2)[C@@H](Cc2ccc(Cl)cc2)CO1` [Compound 127, (2S,5S)-5-(4-chlorobenzyl)-4-(1-(3-fluorophenyl)piperidin-4-yl)-2-methylmorpholine 2,2,2-trifluoroacetate], the IC50 was > 10 µM.

As for `C[C@H]1CN(C2CCN(C(=O)OC(C)(C)C)CC2)[C@@H](Cc2ccc(Cl)cc2)CO1` [Compound 8d, tert-butyl 4-((2S,5S)-5-(4-chlorobenzyl)-2-methylmorpholino)piperidine-1-carboxylate], the IC50 is > 10 µM.

For the compound `C[C@H]1CN(C2CCN(c3ncc(C(F)(F)F)o3)CC2)[C@@H](Cc2ccc(Cl)cc2)CO1` [Compound 168, (2S,5S)-5-(4-chlorobenzyl)-2-methyl-4-(1-(5-(trifluoromethyl)oxazol-2-yl)piperidin-4-yl)morpholine 2,2,2-trifluoroacetate], the IC50 was > 10 µM.

Turning to `C[C@H]1CN(C2CCN(c3ncnc(N(C)C)n3)CC2)[C@@H](Cc2ccc(Cl)cc2)CO1` [Compound 175, 4-(4-((2S,5S)-5-(4-chlorobenzyl)-2-methylmorpholino)piperidin-1-yl)-N,N-dimethyl-1,3,5-triazin-2-amine 2,2,2-trifluoroacetate], the IC50 is > 10 µM.

For `C[C@H]1CN(C2CCN(c3ccccc3F)CC2)[C@@H](Cc2ccc(Cl)cc2)CO1` [Compound 126, (2S,5S)-5-(4-chlorobenzyl)-4-(1-(2-fluorophenyl)piperidin-4-yl)-2-methylmorpholine 2,2,2-trifluoroacetate], the IC50 was > 10 µM.

Regarding `C[C@H]1CN(C2CCN(c3c(F)cccc3C#N)CC2)[C@@H](Cc2ccc(Cl)cc2)CO1` [Compound 118, 2-(4-((2S,5S)-5-(4-chlorobenzyl)-2-methylmorpholino)piperidin-1-yl)-3-fluorobenzonitrile 2,2,2-trifluoroacetate], the IC50 is > 10 µM.

On to `C[C@H]1CN(C2CCN(c3ncnc(Cl)n3)CC2)[C@@H](Cc2ccc(Cl)cc2)CO1` [Compound 169, (2S,5S)-4-(1-(4-chloro-1,3,5-triazin-2-yl)piperidin-4-yl)-5-(4-chlorobenzyl)-2-methylmorpholine 2,2,2-trifluoroacetate], for which the IC50 was > 10 µM.

Take `C[C@H]1CN(C2CCN(c3cc(C(=O)O)ccn3)CC2)[C@@H](Cc2ccc(Cl)cc2)CO1` [Compound 125, 2-(4-((2S,5S)-5-(4-chlorobenzyl)-2-methylmorpholino)piperidin-1-yl)isonicotinic acid 2,2,2-trifluoroacetate]: the IC50 was > 10 µM.

Take `C[C@H]1CN(C2CCN(c3ccc(C#N)cn3)CC2)[C@@H](Cc2ccc(Cl)cc2)CO1` [Example 19, 6-(4-((2S,5S)-5-(4-chlorobenzyl)-2-methylmorpholino)piperidin-1-yl)nicotinonitrile 2,2,2-trifluoroacetate]: the IC50 was > 10 µM.

For `C[C@H]1CN(C2CCN(c3ccccc3)CC2)[C@@H](Cc2ccc(Cl)cc2)CO1` [Example 37, (2S,5S)-5-(4-chlorobenzyl)-2-methyl-4-(1-phenylpiperidin-4-yl)morpholine dihydro-chloride], the IC50 under setting [1] was > 10 µM.

With `C[C@H]1CN(C2CCN(c3ccncn3)CC2)[C@@H](Cc2ccc(Cl)cc2)CO1` [Example 26, (2S,5S)-5-(4-chlorobenzyl)-2-methyl-4-(1-(pyrimidin-4-yl)piperidin-4-yl)morpholi-ne 2,2,2-trifluoroacetate], the IC50 was > 10 µM.

For the compound `C[C@H]1CN(C2CCN(c3ccnc(N)n3)CC2)[C@@H](Cc2ccc(Cl)cc2)CO1` [Compound 67, 4-(4-((2S,5S)-5-(4-chlorobenzyl)-2-methylmorpholino)piperidin-1-yl)pyrimidin-2-amine 2,2,2-trifluoroacetate], the IC50 is > 10 µM.

For `C[C@H]1CN(C2CCN(c3cc(=O)[nH]cn3)CC2)[C@@H](Cc2ccc(Cl)cc2)CO1` [Compound 167, 6-(4-((2S,5S)-5-(4-chlorobenzyl)-2-methylmorpholino)piperidin-1-yl)pyrimidin-4(3H)-one 2,2,2-trifluoroacetate], the IC50 is > 10 µM.

As to `O=C1NCCN(C2CCN(c3ccccn3)CC2)[C@H]1Cc1ccc(Cl)cc1` [Compound 149, (S)-3-(4-chlorobenzyl)-4-(1-(pyridin-2-yl)piperidin-4-yl)piperazin-2-one 2,2,2-trifluoroacetate], the IC50 is > 10 µM.

Take `C[C@H]1CN(C2CCN(c3ccnc(Cl)n3)CC2)[C@@H](Cc2ccc(Cl)cc2)CO1` [Compound 66, (2S,5S)-5-(4-chlorobenzyl)-4-(1-(2-chloropyrimidin-4-yl)piperidin-4-yl)-2-methylmorpholine]: the IC50 under setting [1] was > 10 µM.

Consider `O=C1COC[C@H](Cc2ccc(Cl)cc2)N1C1CCN(c2ccccn2)CC1` [Compound 147, (S)-5-(4-chlorobenzyl)-4-(1-(pyridin-2-yl)piperidin-4-yl)morpholin-3-one hydrochloride], for which the IC50 under setting [1] is > 10 µM.

In the case of `C[C@H]1CN(C2CCN(c3ccccc3C#N)CC2)[C@@H](Cc2ccc(Cl)cc2)CO1` [Compound 119, 2-(4-((2S,5S)-5-(4-chlorobenzyl)-2-methylmorpholino)piperidin-1-yl)benzonitrile 2,2,2-trifluoroacetate], the IC50 was > 10 µM.

Take `C[C@H]1CN(C2CCN(c3cccc(C#N)n3)CC2)[C@@H](Cc2ccc(Cl)cc2)CO1` [Example 18, 6-(4-((2S,5S)-5-(4-chlorobenzyl)-2-methylmorpholino)piperidin-1-yl)picolinonitrile 2,2,2-trifluoroacetate]: the IC50 was > 10 µM.
